Results published in patent US12084453B2, “Bicyclic amines as CDK12 inhibitors” (Incyte Corporation, priority 2021, dated 2024).
Each block holds one molecule with its values, some of them ahead of it.

Target: T1, CDK12 complexed with Cyclin K (Homo sapiens, UniProt Q9NYV4)
T1 construct: GST (N); host or cells: baculovirus expression system
Assay: CDK enzymatic assay (HTRF, LANCE Ultra kinase assay)
Assay type: biochemical
Details: 60 minutes pre-incubation with compound; 1 mM ATP
Experimental: The following activity of the CDK enzymes in complex with their respective cyclins we assayed: CDK1 complexed with Cyclin B1; CDK2 complexed with Cyclin E1; CDK4 complexed with Cyclin D1; CDK6 complexed with Cyclin D1; CDK6 complexed with Cyclin D3; CDK9 complexed with Cyclin T1; CDK7 complexed with Cyclin H/MAT1; CDK2 complexed with Cyclin A2; CDK5 complexed with p35; CDK12 complexed with Cyclin K; CDK13 complexed with Cyclin K. These in vitro enzyme activity are assayed using homogeneous time-resolved energy transfer (HTRF), which measures phosphorylation of a peptide substrate. The LANCE® Ultra kinase assay (PerkinElmer) uses a ULight™-labeled EIF4E-binding protein 1 (THR37/46) peptide (DYSTTPGGTLFSTTPGTRI (SEQ ID NO: 1)) substrate and a Europium-labeled anti-phospho-4E-BP1 antibody (CDK2, CDK1, CDK4, CDK6, CDK9, CDK12, CDK13) or ULight™-labeled Myelin Basic Protein peptide (VTPRTPPP (SEQ ID NO: 2)) substrate and a Europium-labeled anti-phospho-MBP antibody (CDK7). Each CDK enzyme activity assays utilized human CDK co-expressed as N-terminal GST-tagged protein with its full length cyclin partner using a baculovirus expression system.
Enzyme was pre-incubated with compounds for 30 minutes (CDK1,2,4,6,9) or 60 minutes (CDK7, CDK12, CDK13) prior to addition of ATP and Ulight-peptide (1 mM and 50 nM final, respectively), in assay buffer containing 50 mM HEPES pH 7.5, 1 mM EGTA, 10 mM MgCl2, 2 mM DTT, 0.05 mg/mL BSA, and 0.01% Tween 20. The reaction was then incubated for 60-90 minutes at room temperature. The reactions were stopped by the addition of EDTA and Europium labeled antibody, for a final concentration of 15 mM and 1.0-1.5 nM, respectively. HTRF signals were read after 15-120 minutes. A ratio of fluorescence transferred to the labeled substrate (665 nm) relative to fluorescence of the Europium donor (620 nm) represents the extent of phosphorylation. Ratios for treated wells were normalized to DMSO only (100% activity) and no enzyme (0% activity) controls. Normalized data was analyzed using a three or four parameter dose response curve to determine IC50 for each compound and are shown in Table A. Control reference inhibitors were included on each plate.

T1 sequence (Q9NYV4 whole entry): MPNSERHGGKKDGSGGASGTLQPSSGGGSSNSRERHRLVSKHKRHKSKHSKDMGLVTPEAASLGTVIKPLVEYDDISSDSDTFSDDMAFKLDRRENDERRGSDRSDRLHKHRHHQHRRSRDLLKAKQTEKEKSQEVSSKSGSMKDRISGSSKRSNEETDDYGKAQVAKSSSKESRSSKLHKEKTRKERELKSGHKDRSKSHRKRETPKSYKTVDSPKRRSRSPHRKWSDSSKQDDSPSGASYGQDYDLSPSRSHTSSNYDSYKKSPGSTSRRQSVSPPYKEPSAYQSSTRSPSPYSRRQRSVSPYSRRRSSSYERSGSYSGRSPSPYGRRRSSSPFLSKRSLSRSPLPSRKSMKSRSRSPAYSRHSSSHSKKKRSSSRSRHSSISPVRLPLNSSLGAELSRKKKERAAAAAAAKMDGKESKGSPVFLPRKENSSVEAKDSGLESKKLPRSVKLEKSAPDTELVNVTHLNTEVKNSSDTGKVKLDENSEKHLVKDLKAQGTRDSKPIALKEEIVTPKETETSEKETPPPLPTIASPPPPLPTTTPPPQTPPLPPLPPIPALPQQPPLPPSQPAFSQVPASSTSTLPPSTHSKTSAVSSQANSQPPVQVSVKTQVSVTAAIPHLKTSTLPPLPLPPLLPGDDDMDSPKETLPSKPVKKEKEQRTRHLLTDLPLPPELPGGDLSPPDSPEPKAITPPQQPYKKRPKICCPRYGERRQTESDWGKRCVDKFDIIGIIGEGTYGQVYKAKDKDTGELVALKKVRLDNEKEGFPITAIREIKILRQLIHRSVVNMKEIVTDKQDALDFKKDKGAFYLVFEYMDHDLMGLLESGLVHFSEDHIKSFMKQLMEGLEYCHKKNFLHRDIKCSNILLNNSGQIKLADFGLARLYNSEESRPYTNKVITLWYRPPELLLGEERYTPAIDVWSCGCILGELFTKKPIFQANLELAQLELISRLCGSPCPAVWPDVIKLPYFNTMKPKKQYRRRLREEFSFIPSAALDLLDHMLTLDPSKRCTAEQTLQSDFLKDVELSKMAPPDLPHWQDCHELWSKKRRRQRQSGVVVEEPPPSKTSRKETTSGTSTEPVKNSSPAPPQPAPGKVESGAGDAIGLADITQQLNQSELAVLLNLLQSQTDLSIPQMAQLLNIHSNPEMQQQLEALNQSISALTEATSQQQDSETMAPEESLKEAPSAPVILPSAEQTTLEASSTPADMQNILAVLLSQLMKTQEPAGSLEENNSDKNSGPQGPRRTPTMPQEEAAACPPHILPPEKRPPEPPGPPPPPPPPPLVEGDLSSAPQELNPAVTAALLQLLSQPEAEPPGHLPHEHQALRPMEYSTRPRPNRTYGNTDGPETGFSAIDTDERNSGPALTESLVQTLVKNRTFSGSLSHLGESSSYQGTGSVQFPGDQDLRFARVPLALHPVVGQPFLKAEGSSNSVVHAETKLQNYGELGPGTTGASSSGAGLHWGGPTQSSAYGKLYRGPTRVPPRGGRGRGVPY
T1 sequence (O75909 whole entry partner): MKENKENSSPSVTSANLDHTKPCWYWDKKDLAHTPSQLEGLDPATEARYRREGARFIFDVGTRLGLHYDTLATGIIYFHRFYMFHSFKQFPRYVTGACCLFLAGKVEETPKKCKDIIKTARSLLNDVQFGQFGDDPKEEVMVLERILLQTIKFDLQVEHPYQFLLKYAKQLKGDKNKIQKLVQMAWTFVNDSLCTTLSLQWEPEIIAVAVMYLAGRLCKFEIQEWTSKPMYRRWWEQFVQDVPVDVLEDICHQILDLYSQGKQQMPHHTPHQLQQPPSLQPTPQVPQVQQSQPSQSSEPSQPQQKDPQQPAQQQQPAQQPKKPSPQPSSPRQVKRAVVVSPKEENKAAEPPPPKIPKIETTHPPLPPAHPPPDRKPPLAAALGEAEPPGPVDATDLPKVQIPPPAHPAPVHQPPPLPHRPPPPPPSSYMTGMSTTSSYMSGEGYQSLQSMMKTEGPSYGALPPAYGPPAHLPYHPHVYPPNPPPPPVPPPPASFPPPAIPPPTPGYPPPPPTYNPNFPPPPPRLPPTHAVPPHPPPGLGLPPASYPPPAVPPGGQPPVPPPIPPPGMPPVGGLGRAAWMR

Compound: C=CC(=O)Nc1ccc(C(=O)N2CCCC(Nc3nc4ccc(-c5c[nH]nc5C)c(N5CCOCC5)n4n3)C2)cc1 (stereo not drawn) [Example 9, N-(4-(3-((6-(3-Methyl-1H-pyrazol-4-yl)-5-morpholino-[1,2,4]triazolo[1,5-a]pyridin-2-yl)amino)piperidine-1-carbonyl)phenyl)acrylamide]
- IC50: > 500 nM

Compound: C=CC(=O)Nc1ccc(C(=O)N2CCC[C@@H](Nc3nc4cnc(-c5cn[nH]c5)c(OC5CC(F)(F)C5)n4n3)C2)cc1 [Example 10, (R)-N-(4-(3-((5-(3,3-Difluorocyclobutoxy)-6-(1H-pyrazol-4-yl)-[1,2,4]triazolo[1,5-a]pyrazin-2-yl)amino)piperidine-1-carbonyl)phenyl)acrylamide]
- IC50: < 50 nM

Compound: C=CC(=O)Nc1ccc(C(=O)N2CC[C@@H](Nc3nc4ccc(-c5cn[nH]c5)c(C)n4n3)C2)cc1 [Example 12, (R)-N-(4-(3-((5-Methyl-6-(1H-pyrazol-4-yl)-[1,2,4]triazolo[1,5-a]pyridin-2-yl)amino)pyrrolidine-1-carbonyl)phenyl)acrylamide]
- IC50: < 50 nM

Compound: C=CC(=O)Nc1ccc(C(=O)N2CCC[C@@H](Nc3nc4ccc(-c5cn[nH]c5)c(N5CCC(F)(F)CC5)n4n3)C2)cc1 [Example 13, (R)-N-(4-(3-((5-(4,4-Difluoropiperidin-1-yl)-6-(1H-pyrazol-4-yl)-[1,2,4]triazolo[1,5-a]pyridin-2-yl)amino)piperidine-1-carbonyl)phenyl)acrylamide]
- IC50: 50 to 500 nM

Compound: C=CC(=O)Nc1ccc(C(=O)N2CCC[C@@H](Nc3nc4ccc(-c5cn[nH]c5)c(O[C@H]5CCOC5)n4n3)C2)cc1 [Example 14, N-(4-((R)-3-((6-(1H-Pyrazol-4-yl)-5-(((S)-tetrahydrofuran-3-yl)oxy)-[1,2,4]triazolo[1,5-a]pyridin-2-yl)amino)piperidine-1-carbonyl)phenyl)acrylamide]
- IC50: < 50 nM

Compound: C=CC(=O)Nc1ccc(C(=O)N2CCC[C@@H](Nc3nc4ccc(-c5cn[nH]c5)c(OC5CCOCC5)n4n3)C2)cc1 [Example 15, (R)-N-(4-(3-((6-(1H-Pyrazol-4-yl)-5-((tetrahydro-2H-pyran-4-yl)oxy)-[1,2,4]triazolo[1,5-a]pyridin-2-yl)amino)piperidine-1-carbonyl)phenyl)acrylamide]
- IC50: < 50 nM

Compound: C=CC(=O)Nc1ccc(O[C@H]2CCC[C@@H](Nc3nc4ccc(-c5cn[nH]c5)c(N5CCCCC5)n4n3)C2)cc1 [Example 16, N-(4-(((1S,3R)-3-((5-(Piperidin-1-yl)-6-(1H-pyrazol-4-yl)-[1,2,4]triazolo[1,5-a]pyridin-2-yl)amino)cyclohexyl)oxy)phenyl)acrylamide]
- IC50: < 50 nM

Compound: C=CC(=O)Nc1ccc(C(=O)N2CC[C@@H](Nc3nc4ccc(-c5cn[nH]c5)c(C#N)n4n3)C2)cc1 [Example 17, (R)-N-(4-(3-((5-Cyano-6-(1H-pyrazol-4-yl)-[1,2,4]triazolo[1,5-a]pyridin-2-yl)amino)pyrrolidine-1-carbonyl)phenyl)acrylamide]
- IC50: < 50 nM

Compound: C=CC(=O)Nc1ccc(C(=O)N2CC[C@@H](Nc3nc4ccc(-c5cn[nH]c5)c(C(C)C)n4n3)C2)cc1 [Example 18, (R)-N-(4-(3-((5-Isopropyl-6-(1H-pyrazol-4-yl)-[1,2,4]triazolo[1,5-a]pyridin-2-yl)amino)pyrrolidine-1-carbonyl)phenyl)acrylamide]
- IC50: < 50 nM

Compound: C=CC(=O)Nc1ccc(C(=O)N2CC[C@@H](Nc3nc4ccc(-c5cn[nH]c5)c(C(C)C)n4n3)C2)cc1F [Example 19, (R)-N-(2-Fluoro-4-(3-((5-isopropyl-6-(1H-pyrazol-4-yl)-[1,2,4]triazolo[1,5-a]pyridin-2-yl)amino)pyrrolidine-1-carbonyl)phenyl)acrylamide]
- IC50: < 50 nM

Compound: C=CC(=O)Nc1ccc(C(=O)N2CC[C@@H](Nc3nc4ccc(-c5cnco5)cn4n3)C2)cc1 [Example 20, (R)-N-(4-(3-((6-(Oxazol-5-yl)-[1,2,4]triazolo[1,5-a]pyridin-2-yl)amino)pyrrolidine-1-carbonyl)phenyl)acrylamide]
- IC50: < 50 nM

Compound: C=CC(=O)Nc1ccc2c(c1)C(=O)N([C@H]1CCC[C@@H](Nc3nc4ccc(-c5cn[nH]c5)c(N5CCCCC5)n4n3)C1)C2 [Example 21, N-(3-Oxo-2-((1S,3R)-3-((5-(piperidin-1-yl)-6-(1H-pyrazol-4-yl)-[1,2,4]triazolo[1,5-a]pyridin-2-yl)amino)cyclohexyl)isoindolin-5-yl)acrylamide]
- IC50: < 50 nM

Compound: C=CC(=O)Nc1ccc2c(c1)C(=O)N([C@H]1CCC[C@@H](Nc3nc4ccc(-c5cn[nH]c5)c(C)n4n3)C1)C2 [Example 22, N-(2-((1S,3R)-3-((5-Methyl-6-(1H-pyrazol-4-yl)-[1,2,4]triazolo[1,5-a]pyridin-2-yl)amino)cyclohexyl)-3-oxoisoindolin-5-yl)acrylamide]
- IC50: < 50 nM

Compound: C=CC(=O)Nc1ccc2c(c1)C(=O)N([C@H]1CCC[C@@H](Nc3nc4ccc(-c5cn[nH]c5)c(C(C)C)n4n3)C1)C2 [Example 23, N-(2-((1S,3R)-3-((5-Isopropyl-6-(1H-pyrazol-4-yl)-[1,2,4]triazolo[1,5-a]pyridin-2-yl)amino)cyclohexyl)-3-oxoisoindolin-5-yl)acrylamide]
- IC50: < 50 nM

Compound: C=CC(=O)Nc1ccc(C(=O)N2CC[C@@H](Nc3nc4cc(C)c(-c5cn[nH]c5)cn4n3)C2)cc1 [Example 24, (R)-N-(4-(3-((7-Methyl-6-(1H-pyrazol-4-yl)-[1,2,4]triazolo[1,5-a]pyridin-2-yl)amino)pyrrolidine-1-carbonyl)phenyl)acrylamide]
- IC50: 50 to 500 nM

Results, then the molecule that gave them:

- IC50: < 50 nM
Compound: C=CC(=O)Nc1ccc(C(=O)N2CC(Nc3nc4cnc(-c5cn[nH]c5)c(OC(C)C)n4n3)C2)cc1 [Example 1, N-(4-(3-((5-Isopropoxy-6-(1H-pyrazol-4-yl)-[1,2,4]triazolo[1,5-a]pyrazin-2-yl)amino)azetidine-1-carbonyl)phenyl)acrylamide]

- IC50: < 50 nM
Compound: C=CC(=O)Nc1ccc(C(=O)N2CCC(Nc3nc4c(OC)c(-c5cn[nH]c5)ncn4n3)CC2)cc1 [Example 2, N-(4-(4-((8-Methoxy-7-(1H-pyrazol-4-yl)-[1,2,4]triazolo[1,5-c]pyrimidin-2-yl)amino)piperidine-1-carbonyl)phenyl)acrylamide]

- IC50: < 50 nM
Compound: C=CC(=O)Nc1ccc(C(=O)N2CC(Nc3nc4c(OC)c(-c5cn[nH]c5)ncn4n3)C2)cc1 [Example 3, N-(4-(3-((8-Methoxy-7-(1H-pyrazol-4-yl)-[1,2,4]triazolo[1,5-c]pyrimidin-2-yl)amino)azetidine-1-carbonyl)phenyl)acrylamide]

- IC50: < 50 nM
Compound: C=CC(=O)Nc1ccc(C(=O)N2CCC[C@@H](Nc3nc4cnc(-c5cn[nH]c5)c(OC(C)C)n4n3)C2)c(F)c1 [Example 4, (R)-N-(3-Fluoro-4-(3-((5-isopropoxy-6-(1H-pyrazol-4-yl)-[1,2,4]triazolo[1,5-a]pyrazin-2-yl)amino)piperidine-1-carbonyl)phenyl)acrylamide]

- IC50: < 50 nM
Compound: C=CC(=O)Nc1ccc(C(=O)N2CCC[C@@H](Nc3nc4c(OC)c(-c5cn[nH]c5)ncn4n3)C2)cc1 [Example 5, (R)-N-(4-(3-((8-Methoxy-7-(1H-pyrazol-4-yl)-[1,2,4]triazolo[1,5-c]pyrimidin-2-yl)amino)piperidine-1-carbonyl)phenyl)acrylamide]

- IC50: < 50 nM
Compound: C=CC(=O)Nc1ccc(C(=O)N2CCC[C@@H](Nc3nc4ccc(-c5cn[nH]c5)c(N5CCCCC5)n4n3)C2)cc1 [Example 6, (R)-N-(4-(3-((5-(Piperidin-1-yl)-6-(1H-pyrazol-4-yl)-[1,2,4]triazolo[1,5-a]pyridin-2-yl)amino)piperidine-1-carbonyl)phenyl)acrylamide]

- IC50: < 50 nM
Compound: C=CC(=O)Nc1ccc(C(=O)N2CCC[C@@H](Nc3nc4ccc(-c5cn[nH]c5)c(N5CCCC5)n4n3)C2)cc1 [Example 7, (R)-N-(4-(3-((6-(1H-Pyrazol-4-yl)-5-(pyrrolidin-1-yl)-[1,2,4]triazolo[1,5-a]pyridin-2-yl)amino)piperidine-1-carbonyl)phenyl)acrylamide]

- IC50: < 50 nM
Compound: C=CC(=O)Nc1ccc(C(=O)N2CCC[C@@H](Nc3nc4ccc(-c5cn[nH]c5)c(N5CCOCC5)n4n3)C2)cc1 [Example 8, (R)-N-(4-(3-((5-Morpholino-6-(1H-pyrazol-4-yl)-[1,2,4]triazolo[1,5-a]pyridin-2-yl)amino)piperidine-1-carbonyl)phenyl)acrylamide]

- IC50: < 50 nM
Compound: C=CC(=O)Nc1ccc(C(=O)N2CC[C@@H](Nc3nc4ccc(-c5cn[nH]c5)cn4n3)C2)cc1 [Example 11, (R)-N-(4-(3-((6-(1H-Pyrazol-4-yl)-[1,2,4]triazolo[1,5-a]pyridin-2-yl)amino)pyrrolidine-1-carbonyl)phenyl)acrylamide]
